Among the data in ChEMBL document CHEMBL5338713, “Discovery of pomalidomide-based PROTACs for selective degradation of histone deacetylase 8” (Eur J Med Chem, 2022) are Activity, Emax and DC50 values, retold here.

Activity calls are given as the source filed them. No cut-off for these calls is given here.

Chain of Protein cereblon/Histone deacetylase 8 (Homo sapiens) (Q96SW2 whole entry, looked up, one chain of several): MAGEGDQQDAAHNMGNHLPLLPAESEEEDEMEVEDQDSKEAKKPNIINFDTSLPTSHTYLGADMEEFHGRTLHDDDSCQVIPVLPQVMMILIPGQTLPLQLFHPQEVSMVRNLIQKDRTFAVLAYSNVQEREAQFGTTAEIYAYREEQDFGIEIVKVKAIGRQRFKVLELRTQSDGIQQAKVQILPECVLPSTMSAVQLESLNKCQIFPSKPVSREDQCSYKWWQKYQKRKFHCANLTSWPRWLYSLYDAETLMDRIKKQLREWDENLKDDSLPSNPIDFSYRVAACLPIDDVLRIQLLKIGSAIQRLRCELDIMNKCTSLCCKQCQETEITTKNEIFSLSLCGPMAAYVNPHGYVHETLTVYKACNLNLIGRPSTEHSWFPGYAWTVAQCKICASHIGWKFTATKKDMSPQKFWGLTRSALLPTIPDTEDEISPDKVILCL

The first assay addresses Protein cereblon/Histone deacetylase 8 (Homo sapiens) (UniProt Q9BY41+Q96SW2). The experiment in a line: PROTAC activity at HDAC8/CRBN in human HCT-116 cells assessed as degradation of HDAC8 at 5 uM by Western blot analysis. It counts as cell-based.
Conditions: not given
Consider `CN1C(=O)CCC(N2C(=O)c3cccc(NCCCCCCNC(=O)CCCCOc4ccc(CCNC(=O)c5cccc(C(=O)NO)c5)cc4)c3C2=O)C1=O` (configuration not stated), for which the outcome was inactive.
As for `O=C(CCCCOc1ccc(CCNC(=O)c2cccc(C(=O)NOC3CCCCO3)c2)cc1)NCCCCCCNc1cccc2c1C(=O)N(C1CCC(=O)NC1=O)C2=O` (configuration not stated), the outcome was inactive.

A further assay deals with T1, Histone deacetylase 8 (Homo sapiens) (UniProt Q9BY41).
T1 sequence (whole entry): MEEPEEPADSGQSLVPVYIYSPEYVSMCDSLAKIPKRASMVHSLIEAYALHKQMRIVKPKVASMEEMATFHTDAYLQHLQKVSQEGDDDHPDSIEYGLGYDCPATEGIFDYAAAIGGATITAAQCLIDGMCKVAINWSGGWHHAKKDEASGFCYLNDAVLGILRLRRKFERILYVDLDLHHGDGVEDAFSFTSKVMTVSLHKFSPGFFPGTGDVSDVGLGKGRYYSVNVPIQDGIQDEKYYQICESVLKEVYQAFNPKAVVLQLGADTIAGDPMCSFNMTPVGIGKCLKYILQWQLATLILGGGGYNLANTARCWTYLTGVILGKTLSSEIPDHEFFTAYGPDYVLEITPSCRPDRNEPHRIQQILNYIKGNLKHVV
In words: Induction of HDAC8 degradation in human HCT-116 cells assessed as maximum degradation at 0.1 to 160 uM measured after 10 hrs by Western blot analysis relative to control. It counts as cell-based. The settings on record: dose 0.1-160 µM. A general note: Immunoblotting shows a protein as a band on a membrane.
One may read the Emax as the maximal effect, on the per cent scale that the assay sets. As for `O=C(CCCCOc1ccc(CCNC(=O)c2cccc(C(=O)NO)c2)cc1)NCCCCCCNc1ccc2c(c1)C(=O)N(C1CCC(=O)NC1=O)C2=O` (configuration not stated), the Emax was 77%.
On the same count and under the same terms, to `O=C1CCC(N2C(=O)c3cccc(N4CCC(N5CCN(C(=O)CCCCOc6ccc(CCNC(=O)c7cccc(C(=O)NO)c7)cc6)CC5)CC4)c3C2=O)C(=O)N1` (configuration not stated) belongs 91%.

The next assay addresses T2, Histone deacetylase 8 (Homo sapiens, UniProt Q9BY41).
T2 sequence (Q9BY41 whole entry): T1 sequence (whole entry)
The experiment in a line: Induction of HDAC8 degradation in human HCT-116 cells measured after 10 hrs by Western blot analysis. It counts as cell-based.
Conditions: not given
As a reminder, the DC50 is the concentration giving 50% degradation. Turning to `O=C(CCCCOc1ccc(CCNC(=O)c2cccc(C(=O)NO)c2)cc1)NCCCCCCNc1ccc2c(c1)C(=O)N(C1CCC(=O)NC1=O)C2=O` (configuration not stated), the half-maximal degradation concentration (DC50) is 441 nM.
For the compound `O=C1CCC(N2C(=O)c3cccc(N4CCC(N5CCN(C(=O)CCCCOc6ccc(CCNC(=O)c7cccc(C(=O)NO)c7)cc6)CC5)CC4)c3C2=O)C(=O)N1` (configuration not stated), the half-maximal degradation concentration (DC50) was determined as 876 nM.

In a further assay the target is T1, Histone deacetylase 8 (Homo sapiens). In words: Induction of HDAC8 degradation in human HCT-116 cells at 5 uM by Western blot analysis relative to control.
Conditions: not given
It counts as cell-based.
Consider `O=C(CCCCCCOc1ccc(CCNC(=O)c2cccc(C(=O)NO)c2)cc1)NCCCCCNc1cccc2c1C(=O)N(C1CCC(=O)NC1=O)C2=O` (configuration not stated), for which the Activity worked out at 23.7%.
For the compound `O=C(NO)c1cccc(C(=O)NCCc2ccccc2)c1`, the Activity was -22%.
Consider `O=C1CCC(N2C(=O)c3cccc(N4CCN(C5CCN(C(=O)CCCCOc6ccc(CCNC(=O)c7cccc(C(=O)NO)c7)cc6)CC5)CC4)c3C2=O)C(=O)N1` (configuration not stated), for which the Activity came to 43.2%.
As for `O=C(CCCCCOc1ccc(CCNC(=O)c2cccc(C(=O)NO)c2)cc1)NCCCCCNc1cccc2c1C(=O)N(C1CCC(=O)NC1=O)C2=O` (configuration not stated), the Activity worked out at 51.7%.
`O=C(CCCCCOc1ccc(CCNC(=O)c2cccc(C(=O)NO)c2)cc1)NCCCNc1cccc2c1C(=O)N(C1CCC(=O)NC1=O)C2=O` (configuration not stated): the Activity came out at 16.9%.
As to `O=C(CCCOc1ccc(CCNC(=O)c2cccc(C(=O)NO)c2)cc1)NCCNc1cccc2c1C(=O)N(C1CCC(=O)NC1=O)C2=O` (configuration not stated), the Activity is 44.3%.
Turning to `O=C1CCC(N2C(=O)c3cccc(N4CCN(CC5CCN(C(=O)CCCCOc6ccc(CCNC(=O)c7cccc(C(=O)NO)c7)cc6)CC5)CC4)c3C2=O)C(=O)N1` (configuration not stated), the Activity was 43.6%.
Take `O=C(CCCOc1ccc(CCNC(=O)c2cccc(C(=O)NO)c2)cc1)NCCCCCNc1cccc2c1C(=O)N(C1CCC(=O)NC1=O)C2=O` (configuration not stated): the Activity came to 33.4%.
`O=C1CCC(N2C(=O)c3cccc(N4CCC(CN5CCN(C(=O)CCCCOc6ccc(CCNC(=O)c7cccc(C(=O)NO)c7)cc6)CC5)CC4)c3C2=O)C(=O)N1` (configuration not stated): the Activity turned out to be 48.3%.
Take `O=C(COc1ccc(CCNC(=O)c2cccc(C(=O)NO)c2)cc1)NCCCCCNc1cccc2c1C(=O)N(C1CCC(=O)NC1=O)C2=O` (configuration not stated): the Activity was 10.7%.
On to `O=C(CCCCCOc1ccc(CCNC(=O)c2cccc(C(=O)NO)c2)cc1)NCCNc1cccc2c1C(=O)N(C1CCC(=O)NC1=O)C2=O` (configuration not stated), for which the Activity amounted to 72.9%.
For the compound `O=C(CCCOc1ccc(CCNC(=O)c2cccc(C(=O)NO)c2)cc1)NCCCNc1cccc2c1C(=O)N(C1CCC(=O)NC1=O)C2=O` (configuration not stated), the Activity came out at 21.2%.
For the compound `O=C1CCC(N2C(=O)c3cccc(N4CCN(CC5CN(C(=O)CCCCOc6ccc(CCNC(=O)c7cccc(C(=O)NO)c7)cc6)C5)CC4)c3C2=O)C(=O)N1` (configuration not stated), the Activity amounted to 6.54%.
Same read-out and setting: to `O=C1CCC(N2C(=O)c3cccc(N4CCN(C5CN(C(=O)CCCCOc6ccc(CCNC(=O)c7cccc(C(=O)NO)c7)cc6)C5)CC4)c3C2=O)C(=O)N1` (configuration not stated) belongs 39.5%; to `O=C1CCC(N2C(=O)c3cccc(N4CC(N5CCN(C(=O)CCCCOc6ccc(CCNC(=O)c7cccc(C(=O)NO)c7)cc6)CC5)C4)c3C2=O)C(=O)N1` (configuration not stated), 59.6%; to `O=C1CCC(N2C(=O)c3cccc(N4CCN(C(=O)CCCCOc5ccc(CCNC(=O)c6cccc(C(=O)NO)c6)cc5)CC4)c3C2=O)C(=O)N1` (configuration not stated), 57.9%.
As for `O=C(CCCCCCOc1ccc(CCNC(=O)c2cccc(C(=O)NO)c2)cc1)NCCCCCCNc1cccc2c1C(=O)N(C1CCC(=O)NC1=O)C2=O` (configuration not stated), the Activity amounted to 25.6%.
With `O=C(CCCCOc1ccc(CCNC(=O)c2cccc(C(=O)NO)c2)cc1)NCCCCNc1cccc2c1C(=O)N(C1CCC(=O)NC1=O)C2=O` (configuration not stated), the Activity is 53%.
As for `O=C(CCCCCCOc1ccc(CCNC(=O)c2cccc(C(=O)NO)c2)cc1)NCCCNc1cccc2c1C(=O)N(C1CCC(=O)NC1=O)C2=O` (configuration not stated), the Activity worked out at 30.5%.
For `O=C(COc1ccc(CCNC(=O)c2cccc(C(=O)NO)c2)cc1)NCCCCCCNc1cccc2c1C(=O)N(C1CCC(=O)NC1=O)C2=O` (configuration not stated), the Activity is 54.5%.
As for `O=C(CCCCOc1ccc(CCNC(=O)c2cccc(C(=O)NO)c2)cc1)NCCCCCCNc1ccc2c(c1)C(=O)N(C1CCC(=O)NC1=O)C2=O` (configuration not stated), the Activity amounted to 68.9%.
On the same count and under the same terms, the result for `O=C1CCC(N2C(=O)c3cccc(N4CC(CN5CCN(C(=O)CCCCOc6ccc(CCNC(=O)c7cccc(C(=O)NO)c7)cc6)CC5)C4)c3C2=O)C(=O)N1` (configuration not stated) reads 56.3%.
For `O=C1CCC(N2C(=O)c3cccc(N4CCC(N5CCN(C(=O)CCCCOc6ccc(CCNC(=O)c7cccc(C(=O)NO)c7)cc6)CC5)CC4)c3C2=O)C(=O)N1` (configuration not stated), the Activity was found to be 74.4%.
Turning to `O=C(COc1ccc(CCNC(=O)c2cccc(C(=O)NO)c2)cc1)NCCNc1cccc2c1C(=O)N(C1CCC(=O)NC1=O)C2=O` (configuration not stated), the Activity came to 25.8%.
As to `O=C(CCCOc1ccc(CCNC(=O)c2cccc(C(=O)NO)c2)cc1)NCCCCNc1cccc2c1C(=O)N(C1CCC(=O)NC1=O)C2=O` (configuration not stated), the Activity is 20.8%.
The same measure, in the same setting: the result for `O=C(CCCCCCOc1ccc(CCNC(=O)c2cccc(C(=O)NO)c2)cc1)NCCCCNc1cccc2c1C(=O)N(C1CCC(=O)NC1=O)C2=O` (configuration not stated) reads 19.8%; that for `O=C(CCCCOc1ccc(CCNC(=O)c2cccc(C(=O)NO)c2)cc1)NCCNc1cccc2c1C(=O)N(C1CCC(=O)NC1=O)C2=O` (configuration not stated), 52.5%; that for `O=C(CCCOc1ccc(CCNC(=O)c2cccc(C(=O)NO)c2)cc1)NCCCCCCNc1cccc2c1C(=O)N(C1CCC(=O)NC1=O)C2=O` (configuration not stated), 49.6%.
Turning to `O=C(CCCCOc1ccc(CCNC(=O)c2cccc(C(=O)NO)c2)cc1)NCCCNc1cccc2c1C(=O)N(C1CCC(=O)NC1=O)C2=O` (configuration not stated), the Activity was 25.8%.
On to `Nc1cccc2c1C(=O)N(C1CCC(=O)NC1=O)C2=O` (configuration not stated), for which the Activity was -11%.
Regarding `O=C(CCCCCCOc1ccc(CCNC(=O)c2cccc(C(=O)NO)c2)cc1)NCCNc1cccc2c1C(=O)N(C1CCC(=O)NC1=O)C2=O` (configuration not stated), the Activity was 65.2%.
Regarding `O=C(CCCCOc1ccc(CCNC(=O)c2cccc(C(=O)NO)c2)cc1)NCCCCCNc1cccc2c1C(=O)N(C1CCC(=O)NC1=O)C2=O` (configuration not stated), the Activity came to 72.9%.
Take `O=C(CCCCCOc1ccc(CCNC(=O)c2cccc(C(=O)NO)c2)cc1)NCCCCNc1cccc2c1C(=O)N(C1CCC(=O)NC1=O)C2=O` (configuration not stated): the Activity was 24.4%.
`O=C(CCCCCOc1ccc(CCNC(=O)c2cccc(C(=O)NO)c2)cc1)NCCCCCCNc1cccc2c1C(=O)N(C1CCC(=O)NC1=O)C2=O` (configuration not stated): the Activity is 45.2%.
`O=C(COc1ccc(CCNC(=O)c2cccc(C(=O)NO)c2)cc1)NCCCCNc1cccc2c1C(=O)N(C1CCC(=O)NC1=O)C2=O` (configuration not stated): the Activity was 43.6%.
In the case of `O=C(COc1ccc(CCNC(=O)c2cccc(C(=O)NO)c2)cc1)NCCCNc1cccc2c1C(=O)N(C1CCC(=O)NC1=O)C2=O` (configuration not stated), the Activity was found to be 32%.
